Source: BindingDB's records for patent US10143681 (Merck Sharp & Dohme, 2018)

Target: Plasma kallikrein (Homo sapiens, UniProt P03952)
Assay: Kallikrein Assay
Method: The effectiveness of a compound of the present invention as an inhibitor of Kallikrein can be determined using a relevant purified serine protease, and an appropriate synthetic substrate. The rate of hydrolysis of the chromogenic or fluorogenic substrate by the relevant serine protease was measured both in the absence and presence of compounds of the present invention. Assays were conducted at room temperature or at 37° C. […] A decrease in the rate of fluorescence change in the presence of inhibitor is indicative of enzyme inhibition. Such methods are known to one skilled in the art. […] Times required to achieve equilibration between enzyme and inhibitor were determined in control experiments. […] IC50 was determined by inflection point from a four parameter logistic curve fit. Ki was calculated using the Cheng Prusoff equation, Ki=IC50/(1+([S]/Km)).

Sequence of Plasma kallikrein (P03952 20-390 limits assumed): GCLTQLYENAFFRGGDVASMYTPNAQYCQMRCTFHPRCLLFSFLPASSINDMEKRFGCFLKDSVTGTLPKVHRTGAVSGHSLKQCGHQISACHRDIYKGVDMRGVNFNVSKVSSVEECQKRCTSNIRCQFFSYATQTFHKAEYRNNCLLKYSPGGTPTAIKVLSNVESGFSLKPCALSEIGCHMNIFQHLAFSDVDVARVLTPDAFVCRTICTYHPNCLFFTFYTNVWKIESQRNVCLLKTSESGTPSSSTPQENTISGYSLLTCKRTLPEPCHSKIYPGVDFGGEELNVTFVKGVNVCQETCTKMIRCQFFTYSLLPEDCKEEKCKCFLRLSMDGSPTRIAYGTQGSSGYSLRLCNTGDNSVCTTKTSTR
Sequence of Plasma kallikrein (P03952 391-638 limits assumed): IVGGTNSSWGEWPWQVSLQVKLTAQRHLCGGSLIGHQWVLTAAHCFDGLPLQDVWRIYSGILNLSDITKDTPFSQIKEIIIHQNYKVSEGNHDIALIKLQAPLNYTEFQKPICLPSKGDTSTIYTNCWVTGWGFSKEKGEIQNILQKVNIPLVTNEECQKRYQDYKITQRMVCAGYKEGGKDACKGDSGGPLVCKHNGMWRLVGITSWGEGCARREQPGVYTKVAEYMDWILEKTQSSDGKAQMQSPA

## COc1cc([C@@H](CC2CC2)C(=O)Nc2ccc(C(=O)O)cc2)[n+]([O-])cc1-c1c(C(F)F)ccc(Cl)c1F [US10143681, Example 69]
  IC50: 42 nM
